Target: T1, bovine serum albumin (BSA) (Bos taurus, UniProt P02769)
T1 construct: gene ALB
Experiment: fluorescence emission titration (BSA quenching, excitation […] nm), double-log plot; value is Ka, n = […]
Assay type: binding
Conditions: read-out: fluorescence emission titration (BSA quenching, excitation 287 nm), double-log p (converted)

T1 sequence (P02769 25-607): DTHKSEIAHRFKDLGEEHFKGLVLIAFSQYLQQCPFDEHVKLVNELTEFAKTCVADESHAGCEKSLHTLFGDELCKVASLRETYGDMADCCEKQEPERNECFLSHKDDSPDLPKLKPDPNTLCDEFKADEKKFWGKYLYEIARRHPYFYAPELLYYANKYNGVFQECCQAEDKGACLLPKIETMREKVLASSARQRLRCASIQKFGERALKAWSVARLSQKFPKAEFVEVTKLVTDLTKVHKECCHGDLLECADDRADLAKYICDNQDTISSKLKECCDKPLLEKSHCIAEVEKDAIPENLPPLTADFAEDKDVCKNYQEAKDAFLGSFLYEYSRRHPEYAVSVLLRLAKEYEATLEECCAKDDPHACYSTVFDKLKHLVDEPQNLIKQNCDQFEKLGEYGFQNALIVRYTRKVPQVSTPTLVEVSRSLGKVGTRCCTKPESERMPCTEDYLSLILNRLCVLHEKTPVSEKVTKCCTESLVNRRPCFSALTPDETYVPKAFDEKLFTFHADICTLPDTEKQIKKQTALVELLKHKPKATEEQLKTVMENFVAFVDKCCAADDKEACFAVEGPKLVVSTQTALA

C=CCN1C(=O)C(=CC(=O)c2cccc(N)c2)c2ccccc21 [4d, 1-Allyl-3-(2-(3-aminophenyl)-2-oxoethylidene)indolin-2-one]
Kd: 164 nM
